Structures can show the parent of a compound that is named as a salt.
Molecular target: T1, menin and MLL (menin, Flag tagged; biotinylated MLL1 peptide 1-46aa) (Homo sapiens, UniProt O00255)
T1 sequence (O00255 1-610): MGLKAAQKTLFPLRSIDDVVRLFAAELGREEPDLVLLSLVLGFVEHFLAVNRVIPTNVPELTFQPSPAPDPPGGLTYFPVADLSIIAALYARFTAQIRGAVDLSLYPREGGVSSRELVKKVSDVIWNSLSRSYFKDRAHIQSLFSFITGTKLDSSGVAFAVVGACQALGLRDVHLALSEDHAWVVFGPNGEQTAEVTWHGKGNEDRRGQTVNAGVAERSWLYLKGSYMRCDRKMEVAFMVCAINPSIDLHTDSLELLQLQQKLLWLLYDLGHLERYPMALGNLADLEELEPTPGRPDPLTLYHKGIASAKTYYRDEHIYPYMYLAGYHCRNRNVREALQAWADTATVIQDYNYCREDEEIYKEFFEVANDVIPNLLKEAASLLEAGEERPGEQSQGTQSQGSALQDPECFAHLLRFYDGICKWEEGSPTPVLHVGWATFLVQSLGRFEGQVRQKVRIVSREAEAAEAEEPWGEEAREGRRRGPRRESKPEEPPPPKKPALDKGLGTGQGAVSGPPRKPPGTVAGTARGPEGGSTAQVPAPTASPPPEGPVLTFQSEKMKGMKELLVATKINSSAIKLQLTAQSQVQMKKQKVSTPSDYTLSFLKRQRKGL
Test: biochemical
Settings: not given

How did the IC50 turn out when COc1nc(N(C)[C@H]2C[C@@H](NCc3ccc(-c4cc(OC)c(Cl)nn4)cc3)C[C@H]2O)c2cc(CC(F)(F)F)sc2n1 [Example 90, (1R,2S,4R)-4-({[4-(6-chloro-5methoxypyridazin-3-yl)phenyl]methyl}amino)-2-{[2-methoxy-6-(2,2,2-trifluoroethyl)thieno[2,3-d]pyrimidin-4-yl](methyl)amino}cyclopentan1-ol hydrochloride] was run?
Its IC50 is 1.2 nM.

For COc1cc(-c2ccc(CN[C@H]3C[C@@H](O)[C@@H](N(C)c4ncnc5sc(CC(F)(F)F)cc45)C3)cc2)nnc1OC1CCCOC1 (mixture of isomers) [Example 108, (1R,2S,4R)-4-{[(4-{5-methoxy-6-[(oxan-3-yl)oxy]pyridazin-3-yl}phenyl)methyl]amino}-2-{methyl[6-(2,2,2-trifluoroethyl)thieno[2,3-d]pyrimidin-4-yl]amino}cyclopentan-1-ol hydrochloride], which IC50 is on record?
Its IC50 is 1.3 nM.

Same assay, conditions: IC50, binding inhibitory activity between menin and MLL, AlphaLISA; 1 nM menin, 10 nM biotinylated MLL1 peptide

With CN(c1ncnc2sc(CC(F)(F)F)cc12)[C@H]1C[C@@H](NCc2ccc(-c3cc(F)cc4c3cnn4S(C)(=O)=O)cc2)C[C@H]1O [Example 85, (1R,2S,4R)-4-[({4-[6-fluoro-1-(methanesulfonyl)-1H-indazol-4-yl]phenyl}methyl)amino]-2-{methyl[6-(2,2,2-trifluoroethyl)thieno[2,3-d]pyrimidin-4-yl]amino}cyclopentan-1-ol hydrochloride] as the molecule, how does the IC50 read?
Its IC50 is 4 nM.

How did the IC50 turn out when [2H]C([2H])([2H])Oc1cc(-c2ccc(CN[C@H]3C[C@@H](O)[C@@H](N(C)c4nc(OC)nc5sc(CC(F)(F)F)cc45)C3)cc2)nnc1OC([2H])([2H])[2H] [Example 123, (1R,2S,4R)-4-{[(4-{5,6-bis[(^2H3)methyloxy]pyridazin-3-yl}phenyl)methyl}amino}-2-{[2-methoxy-6-(2,2,2-trifluoroethyl)thieno[2,3-d]pyrimidin-4-yl](methyl}amino}cyclopentan-1-ol] was run?
The IC50 was 0.6 nM.

For COc1cc(-c2cnc(OC)c(OC)c2)ccc1CN[C@H]1C[C@@H](O)[C@@H](N(C)c2ncnc3sc(CC(F)(F)F)cc23)C1 [Example 77, (1R,2S,4R)-4-({[4-(5,6-dimethoxypyridin-3-yl)-2-methoxyphenyl]methyl}amino)-2-{methyl[6-(2,2,2-trifluoroethyl)thieno[2,3-d]pyrimidin-4-yl]amino}cyclopentan-1-ol hydrochloride], which IC50 is on record?
Its IC50 is 10.4 nM.

CNC(=O)c1cccc(-c2ccc(CN[C@H]3CC[C@@H](N(C)c4ncnc5sc(CC(F)(F)F)cc45)C3)cc2)c1 [Example 66, N-methyl-4′-({[|(1S,3R)-3-{methyl[6-(2,2,2-trifluoroethyl)thieno[2,3-d]pyrimidin-4-yl]amino}cyclopentyl]amino}methyl)[1,1′-biphenyl]-3-carboxamide hydrochloride] was tested. Which IC50 did it give?
The IC50 was 6.7 nM.

With COc1nc(N(C)[C@H]2C[C@@H](NCc3ccc(-c4cnc(S(C)(=O)=O)c(OC)c4)cc3)C[C@H]2O)c2cc(CC(F)(F)F)sc2n1 [Example 94, (1R,2S,4R)-4-[({4-[6-(methanesulfonyl)-5-methoxypyridin-3-yl]phenyl}methyl)amino]-2-{[2-methoxy-6-(2,2,2-trifluoroethyl)thieno[2,3-d]pyrimidin-4-yl](methyl)amino}cyclopentan-1-ol hydrochloride] as the molecule, how does the IC50 read?
Its IC50 is 2.1 nM.

How did the IC50 turn out when COc1cc(-c2ccc(CN[C@H]3C[C@@H](O)[C@@H](N(C)c4ncnc5sc(CC(F)(F)F)cc45)C3)cc2)nnc1Oc1cccnc1 [Example 107, (1R,2S,4R)-4-{[(4-{5-methoxy-6-[(pyridin-3-yl)oxy]pyridazin-3-yl}phenyl)methyl]amino}-2-{methyl[6-(2,2,2-trifluoroethyl)thieno[2,3-d]pyrimidin-4-yl]amino}cyclopentan-1-ol hydrochloride] was run?
The IC50 was 1.3 nM.

With CN(c1ncnc2sc(CC(F)(F)F)cc12)[C@H]1C[C@@H](NCc2ccc(-c3cccc(CS(C)(=O)=O)c3)cc2)C[C@H]1O [Example 86, (1R,2S,4R)-4-[({3′-[(methanesulfonyl)methyl][1,1′biphenyl]-4-yl}methyl)amino]-2-{methyl[6-(2,2,2 trifluoroethyl)thieno[2,3-d]pyrimidin-4-yl]amino}cyclopentan-1-ol hydrochloride] as the molecule, how does the IC50 read?
Its IC50 is 20.9 nM.

For COc1cc(-c2ccc(CN[C@H]3C[C@@H](O)[C@@H](N(C)c4ncncc4Oc4ccc(F)cc4-c4ccnn4C(C)C)C3)cc2)nnc1OC [Example 102, (1R,2S,4R)-4-({[4-(5,6-dimethoxypyridazin-3-yl)phenyl]methyl}amino)-2-[(5-{4-fluoro-2-[1-(propan-2-yl)-1H-pyrazol-5-yl]phenoxy}pyrimidin-4-yl)(methyl)amino]cyclopentan-1-ol hydrochloride], which IC50 is on record?
The IC50 was 2.7 nM.

Which IC50 does the source give for CNc1nc(N(C)[C@H]2C[C@@H](NCc3ccc(-c4cc(F)cc(OC)c4)cc3)C[C@H]2O)c2cc(CC(F)(F)F)sc2n1 [Example 75, (1R,2S,4R)-4-{[(3′-fluoro-5′-methoxy[1,1′-biphenyl]-4-yl)methyl}amino}-2-{methyl[2-(methylamino)-6-(2,2,2-trifluoroethyl)thieno[2,3-d]pyrimidin-4-yl]amino}cyclopentan-1ol hydrochloride] here?
Its IC50 is 17.2 nM.

Same assay, conditions: cell free IC50 (nM), 1 nM menin, 10 nM biotinylated MLL1 peptide, AlphaLISA

Which IC50 does the source give for COc1cncc(-c2ccc(CN[C@H]3CC[C@@H](N(C)c4ncnc5sc(C6COC6)cc45)C3)cc2)c1 [Example 48, (1R,3S)-N^3-{[4-(5-methoxypyridin-3-yl)phenyl]methyl}-N^1-methyl-N^1-[6-(oxetan-3-yl)thieno[2,3-d]pyrixnidin-4-yl]cyclopentane-1,3-diamine hydrochloride] here?
The IC50 was 1420 nM.

Which IC50 does the source give for CN(c1ncnc2cc(CC(F)(F)F)sc12)[C@@H]1CC[C@H](NCc2ccc3[nH]c(C#N)cc3c2)C1 [Example 4, 5-({[(1S,3R)-3-{methyl[6-(2,2,2-trifluoroethyl)thieno[3,2-d]pyrimidin-4-yl]amino}cyclopentyl]amino}methyl)-1H-indole-2-carbonitrile] here?
The IC50 was 172 nM.

For COc1cncc(-c2ccc(CN[C@@H]3C[C@H](N(C)c4ncnc5sc(CC(F)(F)F)cc45)[C@H](O)[C@@H]3O)cc2)c1 [Example 20A, (1S,2R,3R,5S)-3-({[4-(5-methoxypyridin-3-yl)phenyl]methyl}amino)-5-{methyl[6-(2,2,2-trifluoroethyl)thieno[2,3-d]pyrimidin-4-yl]amino}cyclopentane-1,2-diol Hydrochloride], which IC50 is on record?
The IC50 was 3.9 nM.

Which IC50 does the source give for CN(c1ncnc2sc(CC(F)(F)F)cc12)[C@@H]1CC[C@H](NCc2ccc(-c3cnc4ccoc4c3)cc2)C1 [Example 14, (1R,3S)—N^3-{[4-(furo[3,2-b]pyridin-6-yl)phenyl]methyl}-N^1-methyl-N^1-[6-(2,2,2-trifluoroethyl)thieno[2,3-d]pyrimidin-4-yl]cyclopentane-1,3-diamine Hydrochloride] here?
Its IC50 is 27.4 nM.

How did the IC50 turn out when FC(F)(F)Cc1cc2c(N[C@@H]3CCC[C@H](NCc4ccc(-c5ncco5)cc4)C3)ncnc2s1 [Example 35, (1S,3R)-N^1-{[4-(1,3-oxazol-2-yl)phenyl]methyl}-N^3-[6-(2,2,2-trifluoroethyl)thieno[2,3-d]pyrimidin-4-yl]cyclohexane-1,3-diamine hydrochloride] was run?
Its IC50 is 1220 nM.

Which IC50 does the source give for CN(c1ncnc2sc(CC(F)(F)F)cc12)[C@@H]1CC[C@H](NCc2cncs2)C1 [Example 36, (1R,3S)-N^1-methyl-N^3-[(1,3-thiazol-5-yl)methyl]-N^1-[6-(2,2,2-trifluoroethyl)thieno[2,3-d]pyrimidin-4-yl]cyclopentane-1,3-diamine hydrochloride] here?
The IC50 was 636 nM.
